{"source": "patent US20170079966A1", "about": "“INHIBITION OF TUMOR CELL INTERACTIONS WITH THE MICROENVIRONMENT RESULTING IN A REDUCTION IN TUMOR GROWTH AND DISEASE PROGRESSION” (Deciphera Pharmaceuticals, LLC, priority 2014, published 2017)", "key": {"U87-MG xenograft glioma": {"test_system": "U87-MG xenograft glioma", "assay": "Orthotopic U87-MG xenograft survival model", "details": "bevacizumab 10 mg/kg IP twice weekly; Compound 1 10 mg/kg twice daily PO; from Day 12", "method": "Protocol for in vivo xenograft survival study. Female nude mice were implanted intracranially with one million luciferase-enabled U87-MG cells. Treatments began on Day 12. Mice (n=10/group) were dosed until the end of study. Three additional mice were treated as above for pharmacodynamic analysis after five weeks. Brain BLI signal was determined using an IVIS 50 optical imaging system (Xenogen, Alameda, Calif.). Animals were injected IP with 150 mg/kg D-Luciferin and imaged 10 min post-injection.\nTreatment began on Day 12, when the mean brain BLI signal was 5.8×10^6 photons/sec, and continued until the end of study. Mice were followed through survival."}, "GSC11 glioblastoma cells": {"test_system": "GSC11 glioblastoma cells", "assay": "GSC11 glioma stem cell patient-derived xenograft model (tumor volume, immunohistochemistry)", "type": "in vivo, mice", "procedure": "For the in vivo experiments, 4- to 6-week-old female nude mice that were strictly inbred at The University of Texas MD Anderson Cancer Center and maintained in the MD Anderson Veterinary in accordance with institutional guidelines were used. For the in vivo experiments, GSC11 (5×10^5) or GSC17 (5×10^4) glioblastoma cells were implanted intracranially into nude mice. […] Control mice for these cohorts were treated with phosphate-buffered saline by i.p. injection and/or with 0.4% HPMC vehicle by oral gavage. One cohort of 10 mice per group were treated continuously and followed for survival. A separate cohort of 9 mice per group were treated continuously until the designated time point, and the tumors from these mice were extracted at 3, 4, 5 weeks in GSC11 xenograft mice model and at 3.5, 4.5, 5.5 weeks in GSC17 xenograft mice model after the start of treatment.\nWhen the mice treated for the designated time period developed signs and symptoms of advanced tumors, they were euthanized, and their brains were removed, fixed in 4% formaldehyde for 24 hours, and embedded in paraffin. The tissues were then sectioned serially (4 μm) and stained with hematoxylin and eosin (Sigma-Aldrich). Tumor formation and phenotype were determined by histologic analysis of the hematoxylin- and eosin-stained sections. The tumor volume, greatest longitudinal diameter (length), and greatest transverse diameter (width) were measured using an external caliper and Adobe Illustrator software. The tumor volumes were calculated by the following formula: volume=½(length×width^2).\nFor immunohistochemical analyses, the tissue sections were deparaffinized and subjected to graded rehydration. After blocking the tissue in 5% horse and goat serum and antigen retrieval solution (citrate buffer, pH 6.0), we incubated the tissue sections overnight at 4° C. with primary antibodies against Factor VIII (1:500; A0082, Dako) to assess microvessel formation, vimentin (1:100; M0725, Dako) to assess mesenchymal marker expression, F4/80 (1:50; 123102, BioLegend) to assess monocyte infiltration, nestin (1:300; Ab6142, Abcam) to assess glioma stem cell marker expression, HGF (1:200; LS-B4657, LSBio), and TIE2 (1:50; Santa Cruz Biotechnology) to assess TIE2-expressing monocyte infiltration. Texas red fluorescein isothiocyanate-conjugated secondary antibodies or anti-rat immunoglobulin G antibodies (Invitrogen) were used for 1 hour at room temperature.\nAll statistical analyses were conducted with the GraphPad 6 (InStat) software for Windows 7. Survival analysis was conducted using the Kaplan-Meier method, and differences in survival between treatment groups were assessed using the log-rank test. All other comparisons were performed using an unpaired two-tailed Student t-test. Summary statistics for continuous data are expressed as the mean±standard error of the mean. P values less than 0.05 were considered statistically significant. The nestin staining was assessed using the Image-Pro Plus system version 7.0 (Media Cybernetics) in ×10 fields of at least three tumor samples per group with three to four different sections per tumor sample."}, "PyMT mammary tumor": {"test_system": "PyMT mammary tumor", "assay": "PyMT syngeneic breast cancer model", "type": "in vivo, mice", "procedure": "Female FVB/NJ mice were implanted in the 4th mammary fat pad with one million cells that had been dissociated from tumor fragments from MMTV-PyMT donor mice. […] Mice (n=10/group) were dosed for three weeks, then, primary tumor and lungs were collected and fixed. Lung sections were stained with H&E at Premier Laboratory. Lung metastases (≧10 cells) were counted manually via microscopy. Data were analyzed via one-way analysis of variance (ANOVA), with post-hoc analysis by the method of Holm-Sidak. For analysis of TIE2-positive macrophages, tumor sections were stained with TIE2 and CD31 antibodies at Premier Laboratory. The density of TIE2-positive cells at the stroma/tumor boundary in each tumor was scored using 0=no staining, 1=low, 2=medium, and 3=high."}, "uTIE2 kinase": {"molecular_target": "T1, uTIE2 kinase (Homo sapiens, UniProt Q02763)", "T1 construct": "purchased SignalChem", "T1 sequence (Q02763 771-1124)": "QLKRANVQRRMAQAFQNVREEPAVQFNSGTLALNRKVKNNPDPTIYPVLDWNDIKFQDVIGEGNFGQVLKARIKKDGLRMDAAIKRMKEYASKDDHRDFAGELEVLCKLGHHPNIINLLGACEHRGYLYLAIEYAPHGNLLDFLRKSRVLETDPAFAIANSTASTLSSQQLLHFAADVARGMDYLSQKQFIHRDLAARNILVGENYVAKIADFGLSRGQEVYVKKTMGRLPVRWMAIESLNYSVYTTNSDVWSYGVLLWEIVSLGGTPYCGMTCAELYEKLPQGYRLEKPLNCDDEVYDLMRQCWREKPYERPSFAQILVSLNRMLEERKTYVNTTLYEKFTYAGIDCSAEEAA", "assay": "Biochemical assay for uTIE2 kinase (pyruvate kinase/lactate dehydrogenase coupled)", "details": "ATP 1.5 mM; rate 5 to 6 h; read-out: IC50, inhibition of uTIE2 kinase", "procedure": "Activity of uTIE2 kinase was determined by following the production of ADP from the kinase reaction through coupling with the pyruvate kinase/lactate dehydrogenase system [Schindler 2000]. In this assay, the oxidation of NADH (thus the decrease at A340 nm) was continuously monitored spectrophotometrically. The reaction mixture (100 μL) contained TIE2 (SignalChem) (5.6 nM), BSA (0.004% (w/v)), polyEY (1.5 mg/ml), MgCl2 (15 mM), DTT (0.5 mM), pyruvate kinase (4 units), lactate dehydrogenase (7 units), phosphoenol pyruvate (1 mM), and NADH (0.28 mM) and ATP (1.5 mM) in 90 mM Tris buffer containing 0.2% octyl-glucoside and 1% DMSO, pH 7.5. […] The absorption at 340 nm was monitored continuously for 6 hours at 30° C. on a plate reader (BioTek). The reaction rate was calculated using the 5 to 6 h time frame. Percent inhibition was obtained by comparison of reaction rate with that of a control (i.e. with no test compound)."}, "SKOV-3": {"test_system": "SKOV-3", "assay": "SKOV-3 ovarian xenograft model", "details": "in vivo"}}, "note": "Read-outs that look alike come from different tables or passages of the source.", "data": [{"compound": "O=C(Nc1cc(Oc2cc(F)c(NC(=O)C3(C(=O)Nc4ccc(F)cc4)CC3)cc2F)ccn1)C1CC1", "note": "[Compound 1, N-(4-(2-(cyclopropanecarboxamido)pyridin-4-yloxy)-2,5-difluorophenyl)-N′-(4-fluorophenyl)cyclopropane-1,1-dicarboxamide]", "values": [{"measurement": "Median survival", "setting": "U87-MG xenograft glioma", "result": 112, "unit": "days"}, {"measurement": "Tumor volume at 3 weeks", "setting": "GSC11 glioblastoma cells; GSC11, bevacizumab 10 mg/kg i.p. twice per week, Compound 1 10 mg/kg oral twice daily", "result": "1.2±0.5", "unit": "mm^3"}, {"measurement": "Tumor volume at 4 weeks", "setting": "GSC11 glioblastoma cells; GSC11, same dosing", "result": "9.8±2.8", "unit": "mm^3"}, {"measurement": "Tumor volume at 5 weeks", "setting": "GSC11 glioblastoma cells; GSC11, same dosing", "result": "32.3±14.6", "unit": "mm^3"}, {"measurement": "Factor VIII-positive area", "setting": "GSC11 glioblastoma cells; GSC11 model", "result": "1.1±0.5", "unit": "%"}, {"measurement": "Nestin-positive area", "setting": "GSC11 glioblastoma cells; GSC11 xenograft mouse model", "result": "17.7±2.7", "unit": "%"}, {"measurement": "Mesenchymal tumor marker vimentin / EMT (immunohistochemistry)", "setting": "GSC11 glioblastoma cells; GSC-11 glioma model", "result": "does not cause elevation of vimentin"}, {"measurement": "Macrophage infiltration into tumor (F4/80 IHC staining)", "setting": "GSC11 glioblastoma cells; GSC-11 glioma xenograft model", "result": "does not result in therapy resistance-mediated increases in macrophage infiltration"}, {"measurement": "Day 22 % T/C", "setting": "A375; 10 mg/kg, orally, BID", "result": 47, "unit": "%"}, {"measurement": "Median tumor growth delay", "setting": "A375; 10 mg/kg, orally, BID", "result": "> 12.4", "unit": "days"}, {"measurement": "Day 22 % T/C", "setting": "A375; 20 mg/kg, orally, QD", "result": 33, "unit": "%"}, {"measurement": "Tumor growth delay", "setting": "A375; 20 mg/kg, orally, QD", "result": 15.7, "unit": "days"}, {"measurement": "CD31+ microvessel area in tumor sections at the end of study", "setting": "A375; mouse, in vivo", "result": "significant decreases"}, {"measurement": "Tumor growth inhibition (TGI)", "setting": "PyMT mammary tumor; after dosing for three weeks, paclitaxel 10 mg/kg i.v. every 5 days, Compound 1 15 mg/kg twice daily", "result": 69, "unit": "%"}, {"measurement": "Reduction of TIE2 score (stromal density of TIE2+ cells)", "setting": "PyMT mammary tumor; same dosing", "result": 50, "unit": "%"}, {"measurement": "Reduction of lung metastases compared to controls", "setting": "PyMT mammary tumor; same dosing", "result": 74, "unit": "%"}, {"measurement": "IC50", "setting": "uTIE2 kinase", "result": 7.9, "unit": "nM"}, {"measurement": "SKOV-3 tumor growth", "setting": "SKOV-3", "result": "only weakly inhibited"}]}]}
